Entries after “also recorded” stand apart in the source; their conditions may differ.
Assays:
GSK-3β = GSK-3β Ser9 phosphorylation by immunoblot in PC3 cells; format: cell-based, human; conditions: densitometry, sodium selenate 500 μM 3 h, LY294002 50 μM 1 h
Excerpt: The metabolic effects of insulin on glycogen synthesis are mediated by glycogen synthase kinase-3 (GSK-3), a direct downstream substrate of Akt. GSK-3 is a ubiquitously expressed serine/threonine kinase that phosphorylates and inactivates glycogen synthase. In response to activation of the insulin receptor, Akt phosphorylates and inactivates the repressor GSK-3, thereby stimulating glycogen synthesis [Cross et al., 1995]. […] Resolved whole cell lysates were subjected to immunoblot analysis with an antibody that specifically recognizes GSK-3β only when phosphorylated at Ser9, a site critical for its kinase activity, and comparison made with the cytoskeletal protein β-tubulin as a loading control.

[1] = system: PC3 prostate carcinoma cells; test: Intracellular redox state assay (DCFDA, flow cytometry)
Description: 1×10^6 PC3 prostate carcinoma cells were plated in 60 mm dishes, allowed to attach for 8 h, and serum starved overnight. Cells were incubated with DCFDA 5 μM for 15 min prior to treatment.
The proportion of fluorescent cells was then determined by flow cytometry.
Intracellular redox state was determined using 2′,7′-dichlorodihydrofluorescein diacetate (DCFDA). […] Cells were equilibrated with 5 μM of DCFDA for 15 min prior to various treatments. Adherent cells were then harvested, washed twice with PBS and the proportion of fluorescent cells determined immediately by flow cytometry.

[2] = molecular target: T1, purified human PP2A A-C dimer (Homo sapiens, UniProt P67775); test: Free sulfhydryl groups in purified PP2A (Ellman's assay); format: biochemical; conditions: 0.01 U PP2A, 10 mM of each agent, 15 min at 37° C.
T1 construct: purified PP2A A-C dimer purified from human red blood cells; purchased Upstate 14-111 (lot #28002); host or cells: human red blood cells (native purification)
T1 sequence (P67775 whole entry): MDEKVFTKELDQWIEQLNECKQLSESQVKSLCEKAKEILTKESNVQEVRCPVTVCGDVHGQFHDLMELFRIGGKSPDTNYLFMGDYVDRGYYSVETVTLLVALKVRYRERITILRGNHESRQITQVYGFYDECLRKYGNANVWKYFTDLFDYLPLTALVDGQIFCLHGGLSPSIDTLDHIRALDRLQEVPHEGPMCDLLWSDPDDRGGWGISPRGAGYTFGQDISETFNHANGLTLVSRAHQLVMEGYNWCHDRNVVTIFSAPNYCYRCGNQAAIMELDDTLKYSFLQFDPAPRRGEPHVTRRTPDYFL
T1 sequence (P30153 2-589 partner limits assumed): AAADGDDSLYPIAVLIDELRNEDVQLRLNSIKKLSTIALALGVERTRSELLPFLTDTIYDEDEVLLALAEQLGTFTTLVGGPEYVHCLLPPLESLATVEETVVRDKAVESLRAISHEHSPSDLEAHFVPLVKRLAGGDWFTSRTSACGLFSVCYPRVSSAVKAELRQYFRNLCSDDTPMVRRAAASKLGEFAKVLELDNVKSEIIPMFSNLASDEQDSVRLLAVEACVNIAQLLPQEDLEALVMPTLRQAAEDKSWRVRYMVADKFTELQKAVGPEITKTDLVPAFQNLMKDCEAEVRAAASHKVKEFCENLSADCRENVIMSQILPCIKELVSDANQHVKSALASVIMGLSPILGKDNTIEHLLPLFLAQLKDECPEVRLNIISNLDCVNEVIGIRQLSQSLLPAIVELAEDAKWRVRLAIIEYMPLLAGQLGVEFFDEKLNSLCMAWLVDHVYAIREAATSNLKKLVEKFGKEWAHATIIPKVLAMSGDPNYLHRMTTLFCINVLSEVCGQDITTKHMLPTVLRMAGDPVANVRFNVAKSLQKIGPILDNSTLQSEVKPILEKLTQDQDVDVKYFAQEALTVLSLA
Excerpt: Inactivating reversible oxidation of protein phosphatases involves the modification of a critical cysteine residue within the catalytic domain, ultimately leading to the formation of either intramolecular disulphide or sulphenyl-amide bonds. […] Ellman's reagent (5,5′-Dithio-bis(2-nitrobenzoic acid), DTNB) rapidly forms a disulphide bond with free sulfhydryl groups with the release of chromogenic thiolate ions. […] The quantity of free sulfhydryl groups present within the phosphatase was then determined by the addition of Ellman's reagent and subsequent measurement of absorbance at 412 nm (FIG. 5C).
The change in free sulfhydryl groups in purified PP2A following various treatments was determined using Ellman's Reagent. To 0.01 U of PP2A was added to 37.5 μl of dilution buffer (30 mM Tris-HCl, 3 mM EDTA, pH 8.2), 12.5 μl DTNB reagent (Ellman's reagent) and 200 μl of methanol. Samples were incubated for 5 min at RT, and then extinction measured in duplicate for each at 412 nm.

Akt = Akt phosphorylation by immunoblot in PC3 prostate carcinoma cells; format: cell-based, human; conditions: for effect of hydrogen peroxide on sodium selenate induced reduction of Akt phosphorylation: sodium selenate 500 μM; for Akt activation: ratio of phosphorylated Akt to total Akt versus control: serum starved PC3 cells, 500 μM, 1 hour, densitometry
Description: Such dephosphorylation may be the result of a direct inhibitory effect on the Akt protein itself, or alternatively, can be similarly achieved indirectly by boosting a negative regulator or inhibiting a positive regulator of Akt phosphorylation. […] PC3 prostate carcinoma cells were plated in 100 mm dishes, and when 70-80% confluent serum starved overnight. […] Cells were lysed, and the level of Akt Ser473 phosphorylation determined by immunoblot analysis with an activation specific antibody, and comparison made to levels of Akt protein expressed. To determine the effect on purified Akt, similarly plated but untreated PC3 cells were lysed in RIPA (minus phosphatase inhibitors), a stringent cell lysis buffer that minimizes maintenance of protein-protein complexes. […] The immunoprecipitated protein was then resolved and the level of activated Akt determined by immunoblot analysis as described above.
A reduction in net Akt activity could be achieved indirectly by either preventing the initial Akt phosphorylation, or alternatively, increasing Akt dephosphorylation [Kohn et. al. 1996]. […] Initially okadaic acid, a polyether toxin from red-tide algae (and causative agent of diarrhoetic shellfish poisoning) which inhibits the phospho-protein phosphatases PP1 and PP2A, two phosphatases implicated in the regulation of Akt dephosphorylation was used [Fernandez et al., 2002]. 5×10^5 PC3 prostate carcinoma cells were plated per well of a 6 well plate, allowed attach for 8 h, and then serum starved overnight. […] Lysed cells were resolved by SDS-PAGE, then probed for Akt phosphorylation at the Ser473 residue by immunoblot analysis with an antibody that specifically recognizes Akt when phosphorylated at this site, and comparison made with the total levels of Akt protein expressed (FIG. 2A).
This panel included tautamycin 500 nM (PP1), okadaic acid 500 nM (low dose PP2A>PP1), endothall A (PP2A) 100 μM, calyculin A 2 nM (low dose PP1>PP2A), calyculin A 10 nM (high dose inhibits PP1 and PP2A) and cyclosporine A 400 ng/ml (PP2B). […] Again, lysed cells were resolved by SDS-PAGE, then membranes probed for Akt phosphorylation at the Ser^473 residue by immunoblot analysis with an antibody that specifically recognizes Akt when phosphorylated at this site, and comparison made with the total levels of Akt protein expressed.
5×10^5 PC3 prostate carcinoma cells were plated per well in a 6-well plate, allowed to attach for 8 h, and then serum starved overnight. […] Equal amounts of whole cell lysates were resolved, and then subjected to immunoblot analysis to determine the level of phosphorylated Akt Ser^473. Comparison was then made with the total level of Akt protein expressed.
The phosphorylation status of Akt in whole cell lysates was determined using activation specific antibodies.
Other inorganic (sodium selenite, selenium dioxide, selenium sulphide and selenious acid) and organic (methylselenocysteine, selenocystine) selenium species were tested for their ability to affect Akt activation. All forms were dissolved in water with the exception of selenium sulphide which was solubilised in DMSO, and added to serum starved PC3 cells at a concentration of 500 μM for 1 hour, Whole cell lysates were then resolved, and the activation status of Akt determined by immunoblotting with an antibody that specifically recognizes Akt when phosphorylated at the Ser473 site, as well as the total level of Akt expression (pan Akt). To quantify the degree of Akt activation, immunoblots were digitalised, and the ratio of phosphorylated Akt to total Akt determined by densitometry.

PP2A = molecular target: T2, PP2A (Homo sapiens, UniProt P67775); test: PP2A immunoprecipitation from treated PC3 cells and phosphatase assay; format: cell-based; conditions: PC3 cells treated 1 hour; sodium selenate 500 μM, endothall A 100 μM
T2 construct: the phosphatase activity of the general pool of intracellular PP2A; endogenous in cells; host or cells: PC3 prostate carcinoma cells
T2 sequence (P67775 whole entry): as the sequence (P67775 whole entry) above
T2 sequence (P30153 2-589 partner limits assumed): as the sequence (P30153 2-589 partner limits assumed) above
Description: Free phosphate was removed by passing cell lysates through desalting columns, and measured phosphatase activity using a phosphor-serine peptide and malachite green.
1×10^6 PC3 cells were plated in 60 mm plates and allowed attach for 8 h, then serum starved over night. Following various treatments as indicated, the media was aspirated and cells washed once with TBS. Cells were lysed in 0.3 ml of lysis buffer (20 mM Tris-HCl, pH 7.0, 1% Igepal-CA, 2 mM EDTA, 2 mM EGTA, 1× Complete Protease Inhibitor Cocktail) and phosphates removed by passing the lysate through a 2 ml Zeba Desalt Spin Column (Pierce #89890). Protein concentration of the desalted lysate was determined by the BCA assay as previously described. 100-150 μg of total protein was immunoprecipitated with 4 μg of anti-PP2A monoclonal antibody and 30 μl of Protein A-sepharose slurry at 4° C. for 2 h. Samples were then pelleted at 14,000 rpm for 1 min, washed three times in excess TBS and once with pNPP assay buffer. After the final spin all of the supernatant was carefully removed and 500 μM of phosphor-threonine peptide in a final volume of 80 μl added to the beads. Samples were incubated at 30° C. for 10 min with agitation, and the reaction terminated by the addition of malachite green solution. Absorbance was read at 590 nm for each sample in duplicate.

PP2A A-C dimer = molecular target: T3, PP2A A-C dimer (Homo sapiens, UniProt P67775); test: Phosphopeptide / malachite green assay with purified PP2A; format: biochemical; conditions: 50 μM of each selenium compound
T3 construct: purified PP2A A-C dimer purified from human red blood cells; purchased Upstate 14-111 (lot #28002); host or cells: human red blood cells (native purification)
T3 sequence (P67775 whole entry): as the sequence (P67775 whole entry) above
T3 sequence (P30153 2-589 partner limits assumed): as the sequence (P30153 2-589 partner limits assumed) above
Description: The amount of inorganic phosphate released by enzymatic activity was determined by the addition of malachite green, and absorbance read at 590 nm. Malachite green forms a stable green complex in the presence of molybdate and orthophosphate, allowing the concentration of inorganic phosphate present to be measured. Data is presented as mean absorbance at 590 nm from at least three independent experiments, ±SEM.
1 mg of synthetic phosphopeptides K-R-pT-I-R-R (Upstate #12-219) and R-R-A-pS-V-A (Upstate #12-220) were dissolved in 1.10-1.285 ml of dH2O to prepare a 1 mM solution, then aliquoted and stored at −20° C. until use. 0.01-0.05 U of purified PP2A A-C dimer purified from human red blood cells, or 0.05 U of rabbit PP1 purified from skeletal muscle was mixed with 500 μM of phosphopeptide and incubated in the presence of various treatments as indicated at 37° C. on a heating block for 15 min. Each reaction was made up to a total volume of 25 μl with pNPP buffer (50 mM Tris-HCl, pH 7.0, 100 μM CaCl2). The enzyme reaction was terminated by adding 100 μl of malachite green solution (0.034% malachite green in 10 mM ammonium molybdate, 1 N HCl, 3.4% ethanol, 0.01% Tween-20). Malachite green forms a stable green complex in the presence of molybdate and orthophosphate, allowing the amount of inorganic phosphate present to be measured. Absorbance was read in duplicate for each sample at 590 nm.

[3] = molecular target: T4, human PP2A A-C heterodimer (Homo sapiens, UniProt P67775); format: biochemical; conditions: 5 mM of each selenium compound
T4 construct: purified PP2A A-C dimer purified from human red blood cells; purchased Upstate 14-111 (lot #28002); host or cells: human red blood cells (native purification)
T4 sequence (P67775 whole entry): as the sequence (P67775 whole entry) above
T4 sequence (P30153 2-589 partner limits assumed): as the sequence (P30153 2-589 partner limits assumed) above
Description: In initial assays a chemical substrate of phosphatase enzymatic action, para-nitrophennylphosphate (pNPP) was used, which following hydrolysis of the phosphate moiety generates para-nitrophenol, an intensely yellow chromogen which is soluble under alkaline conditions. […] Absorbance of each sample was measured in duplicate at 405 nm with 590 nm as a reference. PP2A activity was calculated using the following equation: activity=(sample vol in liters)×A405/1.78×104M^−1 cm^−1 (extinction coefficient)×0.25 cm×15 minutes×0.05 U enzyme Data is presented as mean relative phosphatase activity ±SEM from at least three independent experiments.
Para-nitrophennylphosphate (PNPP) is a chemical substrate of phosphatase enzymes, which following hydrolysis of the phosphate moiety generates para-nitrophenol, an intensely yellow chromogen, soluble under alkaline conditions. In assays measuring relative phosphatase activity, 0.05 U of purified PP2A was mixed with 5 μl of 40 mM NiCl2 and 5 μl of BSA solution (5 mg/ml) in a microcentrifuge tube. Various treatments were added as indicated, and the volume adjusted to 80 μl with pNPP assay buffer. Samples were pre-incubated at 37° C. for 15 min. pNPP substrate was freshly prepared before each assay by dissolving 1.5 mg/ml pNPP in 50 mM Tris-HCl, pH 7.0. To start the phosphatase reaction, 120 μl of pNPP substrate was added, and samples incubated for a further 15 min at 37° C. Absorbance of each sample was measured in duplicate at 405 nm with 590 nm as a reference. PP2A activity was calculated using the following equation: activity=(Sample volume in liters)×A405/1.78×10^4M^−1cm^−1 (Extinction coefficient)×0.25 cm×15 min×0.05 U enzyme.

O=c1cc(N2CCOCC2)oc2c(-c3ccccc3)cccc12 [LY294002, reference compound]
reduction of GSK-3β phosphorylation levels (GSK-3β): ~60%

CC(=O)N[C@@H](CS)C(=O)O [NAC, N-acetylcysteine]
basal proportion of fluorescent cells (ROS) ([1]; 1 h, sodium selenate 500 μM, NAC 1 mM): small reduction in the basal proportion of fluorescent cells

CCN1C(=O)C=CC1=O [NEM, N-ethylmaleimide, reference compound]
number of free sulfhydryl groups in PP2A [2]: significantly reduced the number of free sulfhydryl groups

O=C(O)[C@@H]1[C@H](C(=O)O)[C@H]2CC[C@@H]1O2 [endothall A, reference compound]
effect of PPP inhibitor pretreatment on sodium selenate induced Akt Ser473 dephosphorylation (Akt): completely blocked sodium selenate induced Akt dephosphorylation | phosphatase activity of immunoprecipitated PP2A (general intracellular pool) (PP2A): significantly reduced phosphatase activity

OO [hydrogen peroxide]
generation of intracellular oxygen free radicals ([1]; hydrogen peroxide 500 μM, 10 min): marked increase in the generation of intracellular oxygen free radicals | effect of hydrogen peroxide on sodium selenate induced reduction of Akt phosphorylation (Akt; PC3 cells, hydrogen peroxide 0.25 mM for 10 min): unaffected | effect of hydrogen peroxide on sodium selenate induced reduction of Akt phosphorylation (Akt; PC3 cells, hydrogen peroxide 1 mM for 10 min): completely abolished the dephosphorylating effect of sodium selenate | number of free sulfhydryl groups in PP2A [2]: significantly reduced the number of free sulfhydryl groups

O=[Se]=O [selenium dioxide]
Akt activation: ratio of phosphorylated Akt to total Akt versus control (Akt): induce activation of Akt above control (con) levels

S=[Se]=S [selenium sulfide]
Akt activation: ratio of phosphorylated Akt to total Akt versus control (Akt): induce activation of Akt above control (con) levels

N[C@@H](C[SeH])C(=O)O [selenocysteine]
Akt activation: ratio of phosphorylated Akt to total Akt versus control (Akt): induce activation of Akt above control (con) levels

C[Se]CC[C@H](N)C(=O)O [selenomethionine, reference compound]
PP2A phosphatase activity, serine phosphopeptide as substrate (PP2A A-C dimer): neither sodium selenite nor selenomethionine significantly affected PP2A phosphatase activity | PP2A phosphatase activity, pNPP as substrate [3]: neither sodium selenite nor selenomethionine significantly affected PP2A phosphatase activity | Akt phosphorylation at Ser473 (Akt; PC3 cells, 500 μM of each compound, various timepoints): did not affect the level of Akt phosphorylation; also recorded: did not affect the level of phosphorylation of Akt

O=[Se](O)O [selenous acid]
Akt activation: ratio of phosphorylated Akt to total Akt versus control (Akt): induce activation of Akt above control (con) levels
